Results on 40 compounds are retold here after patent publication US12685312B2, “Sulfonamide apyrase inhibitors” (Texas Crop Science, Inc., priority 2022, dated 2026).

This assay concerns apyrase. The assay can be described thus: Screen for apyrase inhibitors (Method 1, in vitro phosphate-release absorbance assay). Particulars: inhibitor conc at 1 mM stock, 1 hr room temperature, absorbance 630 nm; rounded average of two assay results. The format is biochemical. In outline:
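Phosphate-release colorimetric assay (Windsor method) in 60 mM Hepes, 3 mM MgCl2, 3 mM CaCl2, 3 mM ATP, pH 6.5, with compound or DMSO control added. Released phosphate developed with ammonium molybdate and ascorbic acid/TCA, then stopped with citrate/acetic acid.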
For `Cc1cccc2c1N(C(=O)c1cccc(S(=O)(=O)N3CCc4ccccc43)c1)CCC2` [I-510, (3-(indolin-1-ylsulfonyl)phenyl)(8-methyl-3,4-dihydroquinolin-1(2H)-yl)methanone], the “% Inhibition of Apyrase” value is 56%. For `COc1ccc(S(=O)(=O)N2CCc3ccccc32)cc1C(=O)Nc1cc(C(F)(F)F)cc(C(F)(F)F)c1` [I-447, N-(3,5-bis(trifluoromethyl)phenyl)-5-(indolin-1-ylsulfonyl)-2-methoxybenzamide] the value was 61%; for `O=C(NCCCN1CCOCC1)c1cccc(S(=O)(=O)Nc2ccc(Br)cc2)c1` [I-284, 3-(N-(4-bromophenyl)sulfamoyl)-N-(3-morpholinopropyl)benzamide], 27%; for `O=C(Nc1cccc(Cl)c1)c1cccc(S(=O)(=O)N2CCc3ccccc32)c1` [I-515, N-(3-chlorophenyl)-3-(indolin-1-ylsulfonyl)benzamide], 56%. For `COc1ccc(CC(=O)Nc2cccc(S(=O)(=O)Nc3ccc(Br)cc3)c2)cc1F` [I-330, N-(3-(N-(4-bromophenyl)sulfamoyl)phenyl)-2-(3-fluoro-4-methoxyphenyl)acetamide] the value was 65%; for `COc1ccccc1NS(=O)(=O)c1ccc(NC(=O)c2ccc3c(c2)OCCO3)cc1` [I-981, N-(4-(N-(2-methoxyphenyl)sulfamoyl)phenyl)-2,3-dihydrobenzo[b][1,4]dioxine-6-carboxamide], 57%. With `CCOc1ccc(NS(=O)(=O)c2c(C)cccc2NC(=O)c2ccc(Oc3ccccc3)cc2)cc1` [I-825, N-(2-(N-(4-ethoxyphenyl)sulfamoyl)-3-methylphenyl)-4-phenoxybenzamide], the “% Inhibition of Apyrase” value amounted to 48%. For `O=C(Nc1cccc(S(=O)(=O)Nc2cccc(Cl)c2)c1)c1ccc(Br)s1` [I-726, 5-bromo-N-(3-(N-(3-chlorophenyl)sulfamoyl)phenyl)thiophene-2-carboxamide] the value was 56%; for `CN(c1ccccc1)S(=O)(=O)c1ccccc1C(=O)Nc1ccc(C#N)cc1` [I-811, N-(4-cyanophenyl)-2-(N-methyl-N-phenylsulfamoyl)benzamide], 74%. Regarding `COc1ccc2c(c1)CCCN2C(=O)c1ccc(S(=O)(=O)N2CCCc3ccccc32)cc1` [I-866, (4-((3,4-dihydroquinolin-1(2H)-yl)sulfonyl)phenyl)(6-methoxy-3,4-dihydroquinolin-1(2H)-yl)methanone], the “% Inhibition of Apyrase” value was 58%. Take `Cc1ccc(N(C)S(=O)(=O)c2cccc(C(=O)N3c4ccccc4CC3C)c2)cc1` (stereo not shown) [I-481, N-methyl-3-(2-methylindoline-1-carbonyl)-N-(p-tolyl)benzenesulfonamide]: the “% Inhibition of Apyrase” value stood at 58%.

With `COc1ccc(C(=O)Nc2cccc(Cl)c2)cc1S(=O)(=O)Nc1ccc(Br)cc1` [I-15, 3-(N-(4-bromophenyl)sulfamoyl)-N-(3-chlorophenyl)-4-methoxybenzamide], the “% Inhibition of Apyrase” value came to 55%. For the compound `O=C(Nc1ccccc1N1CCOCC1)c1cccc(S(=O)(=O)N2CCc3ccccc32)c1` [I-585, 3-(indolin-1-ylsulfonyl)-N-(2-morpholinophenyl)benzamide], the “% Inhibition of Apyrase” value is recorded as 45%.

For the compound `O=C(Nc1cccc(S(=O)(=O)Nc2cccc(C(F)(F)F)c2)c1)c1cc2ccccc2o1` [I-715, N-(3-(N-(3-(trifluoromethyl)phenyl)sulfamoyl)phenyl) benzofuran-2-carboxamide], the “% Inhibition of Apyrase” value was 58%. On to `CCOc1ccc(NS(=O)(=O)c2ccc(NC(=O)c3cccc(OC(F)F)c3)cc2)cc1` [I-986, 3-(difluoromethoxy)-N-(4-(N-(4-ethoxyphenyl)sulfamoyl)phenyl)benzamide], for which the “% Inhibition of Apyrase” value is 56%. For `Cc1ccccc1NC(=O)c1cccc(S(=O)(=O)Nc2ccc3c(c2)OCO3)c1` [I-238, 3-(N-(benzo[d][1,3]dioxol-5-yl)sulfamoyl)-N-(o-tolyl)benzamide] the value was 74%. For `COc1ccc(S(=O)(=O)N2CCc3ccccc32)cc1C(=O)Nc1ccccc1F` [I-538, N-(2-fluorophenyl)-5-(indolin-1-ylsulfonyl)-2-methoxybenzamide] the value was 54%; for `O=C(Nc1ccccc1C(=O)N1CCCCC1)c1cccc(S(=O)(=O)N2CCc3ccccc32)c1` [I-572, 3-(indolin-1-ylsulfonyl)-N-(2-(piperidine-1-carbonyl)phenyl)benzamide], 50%. With `CC1Cc2ccccc2N1S(=O)(=O)c1cccc(C(=O)N2CCCc3cc(F)c(F)cc32)c1` (stereo not shown) [I-571, (6,7-difluoro-3,4-dihydroquinolin-1(2H)-yl)(3-((2-methylindolin-1-yl)sulfonyl)phenyl)methanone], the “% Inhibition of Apyrase” value was found to be 51%. Regarding `O=C(Nc1cccnc1)c1cccc(NS(=O)(=O)c2ccc3c(c2)OCCCO3)c1` [I-629, 3-((3,4-dihydro-2H-benzo[b][1,4]dioxepine)-7-sulfonamido)-N-(pyridin-3-yl)benzamide], the “% Inhibition of Apyrase” value is listed as 67%. Turning to `COc1ccc([N+](=O)[O-])cc1NS(=O)(=O)c1cccc(C(=O)Nc2ccc(F)c([N+](=O)[O-])c2)c1` [I-430, N-(4-fluoro-3-nitrophenyl)-3-(N-(2-methoxy-5-nitrophenyl)sulfamoyl)benzamide], the “% Inhibition of Apyrase” value was determined as 72%.

Take `Cc1ccc(C(=O)N2CCc3ccccc32)cc1S(=O)(=O)Nc1ccc(F)cc1` [I-569, N-(4-fluorophenyl)-5-(indoline-1-carbonyl)-2-methylbenzenesulfonamide]: the “% Inhibition of Apyrase” value is 51%. For `O=C(c1cccc(S(=O)(=O)N2CCc3ccccc32)c1)N1CCc2ccccc21` [I-567, indolin-1-yl(3-(indolin-1-ylsulfonyl)phenyl)methanone] the value was 51%; for `Cc1ccc(NC(=O)c2cccc(S(=O)(=O)N3CCc4ccccc43)c2)cc1` [I-501, 3-(indolin-1-ylsulfonyl)-N-(p-tolyl)benzamide], 57%. For `O=C(Nc1nnc[nH]1)c1cccc(NS(=O)(=O)c2ccc(Br)cc2)c1` [I-672, 3-((4-bromophenyl)sulfonamido)-N-(4H-1,2,4-triazol-3-yl)benzamide] the value was 1%; for `O=C(c1cc(S(=O)(=O)Nc2ccc(Cl)cc2)ccc1Cl)N1CCCc2ccccc21` [I-559, 4-chloro-N-(4-chlorophenyl)-3-(1,2,3,4-tetrahydroquinoline-1-carbonyl)benzenesulfonamide], 52%. On to `COc1ccc(NC(=O)c2ccc(NS(=O)(=O)c3ccc(Cl)cc3F)cc2)cc1` [I-956, 4-((4-chloro-2-fluorophenyl)sulfonamido)-N-(4-methoxyphenyl)benzamide], for which the “% Inhibition of Apyrase” value came to 22%.

Consider `O=C(Nc1ccc2c(c1)CCC2)c1ccc(NS(=O)(=O)c2ccc3c(c2)OCCO3)cc1` [I-910, N-(2,3-dihydro-1H-inden-5-yl)-4-((2,3-dihydrobenzo[b][1,4]dioxine)-6-sulfonamido)benzamide], for which the “% Inhibition of Apyrase” value was 60%. For `CCc1cccc(NC(=O)c2ccc(S(=O)(=O)Nc3ccc(Cl)cc3)cc2)c1` [I-395, 4-(N-(4-chlorophenyl)sulfamoyl)-N-(3-ethylphenyl)benzamide], the “% Inhibition of Apyrase” value is 51%. For `O=C(Nc1cccc(S(=O)(=O)Nc2ccccc2F)c1)c1cccs1` [I-776, N-(3-(N-(2-fluorophenyl)sulfamoyl)phenyl)thiophene-2-carboxamide] the value was 1%; for `O=C(Nc1cccc(S(=O)(=O)Nc2ccccc2Cl)c1)c1cnccn1` [I-752, N-(3-(N-(2-chlorophenyl)sulfamoyl)phenyl)pyrazine-2-carboxamide], 40%; for `O=C(Nc1ccc(F)cc1)c1ccc(Cl)c(S(=O)(=O)N2CCc3ccccc32)c1` [I-513, 4-chloro-N-(4-fluorophenyl)-3-(indolin-1-ylsulfonyl)benzamide], 56%. For `CCNC(=O)c1cccc(NC(=O)c2cccc(S(=O)(=O)Nc3cccc(C(F)(F)F)c3)c2)c1` [I-594, N-ethyl-3-(3-(N-(3-(trifluoromethyl)phenyl)sulfamoyl)benzamido) benzamide] the value was 36%; for `O=C(Nc1ccc(F)cc1)c1cccc(S(=O)(=O)Nc2ccc3c(c2)OCO3)c1` [I-216, 3-(N-(benzo[d][1,3]dioxol-5-yl)sulfamoyl)-N-(4-fluorophenyl)benzamide], 71%. For `Cc1nc2cc(NC(=O)c3cccc(S(=O)(=O)Nc4ccc(Br)cc4)c3)ccc2o1` [I-256, 3-(N-(4-bromophenyl)sulfamoyl)-N-(2-methylbenzo[d]oxazol-5-yl)benzamide] the value was 61%; for `NC(=O)C1CCCN(C(=O)c2cccc(S(=O)(=O)Nc3ccc(Br)cc3)c2)C1` (stereo not shown) [I-282, 1-(3-(N-(4-bromophenyl)sulfamoyl)benzoyl)piperidine-3-carboxamide], 34%. As to `COc1ccc(NC(=O)c2cccc(S(=O)(=O)N3CCc4ccccc43)c2)cc1` [I-454, 3-(indolin-1-ylsulfonyl)-N-(4-methoxyphenyl)benzamide], the “% Inhibition of Apyrase” value is on record as 60%.

Take `O=C(Nc1cccc(NS(=O)(=O)c2ccc(Cl)cc2)c1)c1ccc2[nH]cnc2c1` [I-342, N-(3-((4-chlorophenyl)sulfonamido)phenyl)-1H-benzo[d]imidazole-5-carboxamide]: the “% Inhibition of Apyrase” value came to 63%. As to `Cc1ccc(N(C)S(=O)(=O)c2cccc(C(=O)Nc3ccc(C)cc3C)c2)cc1` [I-591, N-(2,4-dimethylphenyl)-3-(N-methyl-N-(p-tolyl)sulfamoyl)benzamide], the “% Inhibition of Apyrase” value worked out at 41%. As to `CCOc1ccc(Br)cc1S(=O)(=O)Nc1ccc(NC(=O)c2ccccc2F)cc1` [I-1004, N-(4-((5-bromo-2-ethoxyphenyl)sulfonamido)phenyl)-2-fluorobenzamide], the “% Inhibition of Apyrase” value turned out to be 46%.
